# How the values were obtained:
# [1] = system: cord blood mononuclear cells (MNC); experiment: FACS analysis of reselected CD34+ cell subsets (CD34+CD38-, CD34+Lin-) from MNC cultures; format: cell-based, human; details: for CD34+Lin- cells by FACS from reselected CD34+ cell fraction: MNC with RAR antagonists and cytokines; for cumulative number of CD34+CD38- cells: cytokines
# Protocol: Surface antigen analysis: Cells were harvested, washed with a PBS solution containing 1% bovine sera albumin (BSA) and 0.1% sodium azide (Sigma), ind stained at 4° C. for 60 minutes with fluorescein isothiocyanate or phycoerythrin-conjugated antibodies (all from Immunoquality Products, the Netherlands). The cells were then washed with the same buffer and analyzed by FACS caliber or Facstarplus flow cytometers. Cells were passed at a rate of 1000 cells/second, using saline as the sheath fluid. A 488 nm argon laser beam served as the light source for excitation. Emission of ten thousand cells was measured using logarithmic amplification, and analyzed using CellQuest software.
# Reselected CD34+ cell subsets were stained for the following combination of antigens: CD34PE/CD38FITC and CD34PE/38-, 33-, 14-, 15-, 3, 4, 61, 19 (Lin) FITC.
# FACS analysis results are given as percentage values of cells. Absolute numbers of subsets are calculated from the absolute number of CD34+ cells.
# Determination of baseline levels of CD34^+/CD38− and CD34^+/Lin^− cells was conducted as follows: CD34+ cells were purified from 3 thawed cord blood units and stained for the above markers. The mean of these experiments was considered as the baseline value.
# (§1) Total cell counts, numbers of CD34+ cells and subsets, and CFU numbers are presented as cumulative numbers, with the assumption that the cultures had not been passaged; i.e., the number of cells per ml were multiplied by the number of passages performed.
# [2] = system: cord blood mononuclear cells (MNC); experiment: Ex-vivo expansion of CD34+ cells in mononuclear cell (MNC) cultures; CD34+ cells reselected and counted; format: cell-based, human; details: for cumulative number of CD34+ cells per culture bag: cytokines, eight weeks incubation; for Number of CD34+ cells (×10^4) / Portion of CD34+ cells (%): 8 weeks
# [3] = system: cord blood mononuclear cells (MNC); experiment: as above; format: cell-based, human; details: for cumulative number of CD34+ cells: MNC culture, cytokines, TEPA 5-10 μM for first three weeks
# Protocol: Sample collection and processing: Samples were obtained from umbilical cord blood after a normal full-term delivery and were frozen within 24 hours pospartum. The blood cells were thawed in Dextran buffer and incubated for 15 hours in MEM (Biological Industries, Israel) supplemented with 10% fetal calf serum (FCS; Biological Industries). The cells were then layered on Ficoll-Hypaque (density 1.077 gram/ml; Sigma) and centrifuged at 400 g for 30 minutes at room temperature. The mononuclear cells in the interface layer were then collected, washed three times in phosphate-buffered saline (PBS; Biological Industries), and re-suspended in PBS containing 0.5% human serum albumin (HSA). The cells were then split into two fractions, the first being the mononuclear cells (MNC) fraction and the second fraction was used for purifying CD34^+ cells by immunomagnetic separation using the “MiniMACS CD34^+ progenitor cell isolation kit” (Miltenyi Biotec, Auburn, Calif.) according to the manufacturer's recommendations. The purity of the CD34^+ cells obtained ranged between 95% and 98%, based on Flow Cytometry evaluation.
# Ex-vivo expansion of hematopoietic stem cells: The Mononuclear cells (MNC), obtained as described hereinabove, were plated in 24-well Costar Cell Clusters (Corning Inc., Corning, N. Y.) or seeded in Culture Bags (American Fluoroseal Corp.), with alpha minimal essential medium (a-MEM) supplemented with 10% fetal bovine serum (FBS, Biological Industries), at a concentration of about 10^6 cells/ml. […]
# Determination of CD34+ cells and subsets: CD34+ surface expression on short and long-term cultures initiated either with purified CD34+ cells or the entire MNC fraction was determined as follows: CD34+ cells were positively reselected (Miltenyi kit) and counted. […]
# Mononuclear cells (MNC) were seeded in culture bags and were provided with nutrients and cytokines (50 ng/ml FLt3, IL-6, TPO and SCF) as described above. […] The cultures were analyzed weekly during a 12-week period for the number of cells, CFUc, CD34+ and CD34+CD38− cells. […]
# [4] = system: cord blood mononuclear cells (MNC); experiment: Colony forming unit (CFU) ability of MNC cultures; format: cell-based, human; details: MNC culture, cytokines, TEPA 5-10 μM for first three weeks
# Protocol: as §1
# Assaying Colony Forming Unit (CFU) ability: Cells were cloned in semi-solid, methylcellulose-containing medium supplemented with 2 IU/ml erythropoietin (Eprex, Cilag AG Int., Switzerland), stem cell factor and IL-3, both at 20 ng/ml, and G-CSF and GM-CSF, both at 10 ng/ml (all from Perpo Tech). Cultures were incubated for 14 days at 37° C., 5% CO2 in a humidified atmosphere.
# Determination of LTC-CFUc values: The ability of the cultures to maintain self-renewal was measured by determination of the content of colony forming unit cells in the long and extended long-term cultures (LTC-CFUc), as described in the references hereinabove.
# [5] = system: cord blood mononuclear cells (MNC); experiment: Morphological assessment of long-term MNC cultures (May-Grunwald/Giemsa); format: cell-based, human; details: long-term TEPA-treated MNC cultures
# Description: Morphological assessment: Morphological characterization of the resulting culture populations was accomplished on aliquots of cells deposited on glass slides via cytospin (Cytocentrifuge, Shandon, Runcorn, UK). Cells were fixed, stained with May-Grunwald/Giemsa stain and examined microscopically.
# CD34+ cell cultures = details: early acting cytokines, 5-10 μM TEPA (b8), atomic absorption; cited from earlier work
# [6] = cytokines + RAR antagonist 10^-6 M, 2 weeks
# [7] = cytokines + RAR antagonist 10^-6 M, 5 weeks
molecule,measurement,setting,value
CCc1ccc(C2=CC(C)(C)Sc3ccc(C#Cc4ccc(C(=O)O)cc4)cc32)cc1 [RAR antagonist],CD34+Lin- cells by FACS from reselected CD34+ cell fraction,[1]; 2 weeks after initial seeding,78%
same,CD34+Lin- cells by FACS from reselected CD34+ cell fraction,[1]; 5 weeks after initial seeding,24%
same,% CD34/Lin-,[1]; [6],78.4%
same,No of CD34+/Lin- × 10^4,[1]; [6],132.5 × 10^4
same,% CD34/Lin-,[1]; [7],24.1%
same,No of CD34+/Lin- × 10^4*,[1]; [7],237.8 × 10^4
same,No of CD34 cells × 10^4,[2]; [6],169 × 10^4
same,No of CD34 cells × 10^4*,[2]; [7],985 × 10^4
"NCCNCCNCCNCCN [TEPA, tetraethylenepentamine]",cumulative number of CD34+ cells,[3]; after 2 weeks,non-detectable
same,cumulative number of CD34+ cells,[3]; after 12 weeks,over 8×10^7 cells/ml
same,stem and progenitor cells densities versus pre-purified CD34+ cell cultures (not treated with TEPA),"[3]; TEPA-treated MNC cultures, 12-week period",either equalized or surpassed
same,cumulative number of CD34+CD38- cells,"[1]; MNC culture, TEPA 5-10 μM for first three weeks, after 2 weeks",non-detectable
same,cumulative number of CD34+CD38- cells,"[1]; MNC culture, TEPA 5-10 μM for first three weeks, after 12 weeks",2.5×10^7 cells/ml
same,number of CD34+ CFUs,[4]; after 2 weeks,non-detectable
same,number of CD34+ CFUs,[4]; after 10 weeks,3.2×10^7 cells/ml
same,morphological analysis of cells from long-term cultures,[5],a high proportion of non-differentiated cells
same,reduction of cell copper content,CD34+ cell cultures,30%
tetraethylenepentamine-copper chelate [Cu-TEPA chelate],cumulative number of CD34+CD38- cells,"[1]; 100 μM Copper-TEPA for first three weeks, eight weeks incubation",6.1×10^5
same,Number of CD34/38- cells (×10^4),"[1]; Cu-TEPA chelate 100 μM, 8 weeks",61 ×10^4
same,cumulative number of CD34+ cells per culture bag,[2]; 50 μM Copper-TEPA for first three weeks,12.37×10^6 cells per culture bag
same,cumulative number of CD34+ cells per culture bag,[2]; 100 μM Copper-TEPA for first three weeks,32.85×10^6 cells per culture bag
same,Number of CD34+ cells (×10^4),[2]; Cu-TEPA chelate 50 μM,1237.3 ×10^4
same,Portion of CD34+ cells (%),[2]; Cu-TEPA chelate 50 μM,1.4%
same,Number of CD34+ cells (×10^4),[2]; Cu-TEPA chelate 100 μM,3285.3 ×10^4
same,Portion of CD34+ cells (%),[2]; Cu-TEPA chelate 100 μM,1.2%
